Where a chain is given by its changes, count along the chain named. In names and notes the source's numbering stands. Several values for one entry are separate records, joined by “and”; a condition that tells them apart may be missing. Identical values can stand only once.
What was measured:
P185A mutant 3α-HSD/CR = molecular target: T1, P185A mutant 3α-HSD/CR (Comamonas testosteroni, UniProt P80702, P185A); experiment: Steady-state kinetics and primary isotope effects, oxidation of androsterone with NAD^+
T1 sequence (P80702 1-257 P185A): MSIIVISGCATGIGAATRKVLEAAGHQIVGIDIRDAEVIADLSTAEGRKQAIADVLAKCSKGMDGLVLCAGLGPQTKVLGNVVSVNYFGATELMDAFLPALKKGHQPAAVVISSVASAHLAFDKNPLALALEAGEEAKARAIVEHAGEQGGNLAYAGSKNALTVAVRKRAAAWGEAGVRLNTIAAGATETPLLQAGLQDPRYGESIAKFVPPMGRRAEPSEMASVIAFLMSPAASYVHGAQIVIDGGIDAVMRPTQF
Text: (§1) All reactions were initiated by the addition of an enzyme.
(§2) The data were fitted to Equation 2.

T188A mutant 3α-HSD/CR = molecular target: T2, T188A mutant 3α-HSD/CR (Comamonas testosteroni, UniProt P80702, T188A); experiment: biochemical; type: biochemical
T2 construct: His-tag (inferred from pET15b vector and Ni-NTA purification) (N); made in house; host or cells: Escherichia coli BL21(DE3)
Text: as §1, §2

T188S mutant 3α-HSD/CR = molecular target: T3, T188S mutant 3α-HSD/CR (Comamonas testosteroni, UniProt P80702, T188S); experiment: biochemical; type: biochemical
T3 construct: His-tag (inferred from pET15b vector and Ni-NTA purification) (N); made in house; host or cells: Escherichia coli BL21(DE3)
Text: as §1, §2

wild-type 3α-HSD/CR [1] = molecular target: T4, wild-type 3α-HSD/CR (Comamonas testosteroni, UniProt P80702); conditions: cited from earlier work
T4 sequence (P80702 1-257): T1 sequence (P80702 1-257 P185A) with A185P

wild-type 3α-HSD/CR [2] = molecular target: T4, wild-type 3α-HSD/CR; conditions: WT; pH 10.5; obtained from Table 1
Text: as §1, §2

wild-type 3α-HSD/CR [3] = molecular target: T4, wild-type 3α-HSD/CR
[4] = substrate: NC(=O)c1ccc[n+]([C@@H]2O[C@H](COP(=O)([O-])OP(=O)(O)OC[C@H]3O[C@@H](n4cnc5c(N)ncnc54)[C@H](O)[C@@H]3O)[C@@H](O)[C@H]2O)c1; experiment: purified protein, by the assay type; conditions: other: P185A, 0.1 M Caps pH 10.5, 25°C
[5] = P185A, 0.1 M Caps pH 10.5, 25°C
[6] = WT, labeled vs unlabeled androsterone, 1.7 mM NAD^+, pH 10.5

T2 sequence (P80702 whole entry T188A): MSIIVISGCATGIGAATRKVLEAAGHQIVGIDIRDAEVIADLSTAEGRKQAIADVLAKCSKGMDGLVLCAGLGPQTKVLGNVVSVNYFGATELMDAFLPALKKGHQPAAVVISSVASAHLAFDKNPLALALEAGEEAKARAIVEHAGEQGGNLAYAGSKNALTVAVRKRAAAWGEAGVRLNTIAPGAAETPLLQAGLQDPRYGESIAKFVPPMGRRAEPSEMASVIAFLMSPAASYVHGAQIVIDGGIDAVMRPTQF
T3 sequence (P80702 whole entry T188S): as the sequence (P80702 whole entry T188A) above, with A188S counted along it

In the case of NC(=O)c1ccc[n+]([C@@H]2O[C@H](COP(=O)([O-])OP(=O)(O)OC[C@H]3O[C@@H](n4cnc5c(N)ncnc54)[C@H](O)[C@@H]3O)[C@@H](O)[C@H]2O)c1 [NAD^+], the Ki (P185A mutant 3α-HSD/CR) is reported as 1000 ± 300 µM, the “ΔΔGbmut/wt (differential ground-state binding energy, enzyme-NAD^+ complex)” value (P185A mutant 3α-HSD/CR; P185A vs wild-type, pH 10.5, Equation 4) is reported as 1.7 kcal/mol and the “kcat/Ka (NAD^+)” value (P185A mutant 3α-HSD/CR; [5]) is reported as 4.7e+06 ± 1.1e+06 M⁻¹ s⁻¹. For the same molecule, the Ki (T188A mutant 3α-HSD/CR) was 1400 ± 200 µM, the “ΔΔGbmut/wt (differential ground-state binding energy, enzyme-NAD^+ complex)” value (T188A mutant 3α-HSD/CR; T188A vs wild-type, pH 10.5, Equation 4) was 1.8 kcal/mol and the Ki (T188S mutant 3α-HSD/CR) was 1600 ± 300 µM. For the same molecule, the “ΔΔGbmut/wt (differential ground-state binding energy, enzyme-NAD^+ complex)” value (T188S mutant 3α-HSD/CR; T188S vs wild-type, pH 10.5, Equation 4) was 1.9 kcal/mol, the “Ka (Michaelis constant of NAD^+)” value (wild-type 3α-HSD/CR [1]; WT, 0.1 M Caps pH 10.5) was 121 ± 26 µM and the Ki (wild-type 3α-HSD/CR [1]; read-out: Kia (inhibition constant of NAD^+), WT, 0.1 M Caps pH 10.5) was 60 ± 30 µM.

With C[C@]12CC[C@@H](O)C[C@@H]1CC[C@@H]1[C@@H]2CC[C@]2(C)C(=O)CC[C@@H]12 [androsterone, Androsterone] the “kcat/KiaKb (kcat/KiNADKandrosterone)” value (wild-type 3α-HSD/CR [2]) was 42 ×10^4 mM^−2s^−1, the “ΔΔG^‡ mut/wt (differential transition-state binding energy)” value (P185A mutant 3α-HSD/CR; P185A vs wild-type, pH 10.5, Equation 5) was 0.96 kcal/mol and the kcat (P185A mutant 3α-HSD/CR; [5]) was 916 ± 61 s⁻¹. The “increase of kcat/Kandrosterone relative to wild-type” value (P185A mutant 3α-HSD/CR; P185A, pH 10.5) was 3 fold, the “kcat/KiaKb (kcat/KiNADKandrosterone)” value (P185A mutant 3α-HSD/CR; P185A, pH 10.5, obtained from Table 1) was 8.3×10^4 mM^−2s^−1 and the “ΔΔG^‡ mut/wt (differential transition-state binding energy)” value (T188A mutant 3α-HSD/CR; T188A vs wild-type, pH 10.5, Equation 5) was 1.9 kcal/mol. For the same molecule, the kcat (T188A mutant 3α-HSD/CR; T188A, 0.1 M Caps pH 10.5, 25°C) was 1200 ± 133 s⁻¹, the “kcat/KiaKb (kcat/KiNADKandrosterone)” value (T188A mutant 3α-HSD/CR; T188A, pH 10.5, obtained from Table 1) was 1.7×10^4 mM^−2s^−1 and the “increase of Kandrosterone relative to wild-type” value (T188A mutant 3α-HSD/CR; mutation of T188 (T188A), pH 10.5) was 14 fold. The “ΔΔG^‡ mut/wt (differential transition-state binding energy)” value (T188S mutant 3α-HSD/CR; T188S vs wild-type, pH 10.5, Equation 5) was 2.0 kcal/mol, the kcat (T188S mutant 3α-HSD/CR; T188S, 0.1 M Caps pH 10.5, 25°C) was 1414 ± 149 s⁻¹ and the “kcat/KiaKb (kcat/KiNADKandrosterone)” value (T188S mutant 3α-HSD/CR; T188S, pH 10.5, obtained from Table 1) was 1.4×10^4 mM^−2s^−1. For the same molecule, the “minimum rate constant for hydride transfer from undeuterated androsterone to NAD^+” value (wild-type 3α-HSD/CR [3]; calculated from kobs 309 s^−1 and ^D(Vmax/Kandrosterone) 1.8) was at least 556 s⁻¹, the kcat (wild-type 3α-HSD/CR [1]; WT, 0.1 M Caps pH 10.5) was 100 ± 8 s⁻¹ and the “^D(V/K b) (primary kinetic isotope effect on Vmax/Kandrosterone)” value (wild-type 3α-HSD/CR [1]; [6]) was 1.8 and 1.8±0.2. For the same molecule, the “^DV (primary kinetic isotope effect on Vmax)” value (wild-type 3α-HSD/CR [1]; [6]) was 1 and the “^D2OVmax (solvent kinetic isotope effect)” value (wild-type 3α-HSD/CR [1]; wild-type) was 2.1.

In the case of [2H]C1(O)CCC2(C)C(CCC3C4CCC(=O)C4(C)CCC32)C1 (stereo not drawn) [deuterated androsterone, [3α-^2H]Androsterone], the “apparent rate constant (kobs) for the deuteride transfer” value (wild-type 3α-HSD/CR [3]; 1 µM WT, 1 mM NAD^+, 17.5 µM deuterated androsterone, 0.1 M Caps pH 10.5, 25°C) is reported as 309 s⁻¹.

B1: P185A mutant 3α-HSD/CR (Comamonas testosteroni; P185A) (protein)
chain: T1 sequence (P80702 1-257 P185A)
In the case of B1, the Km [4] is reported as 195 ± 55 µM.

Source: publication PMC3662788, “The Catalytic Roles of P185 and T188 and Substrate-Binding Loop Flexibility in 3α-Hydroxysteroid Dehydrogenase/Carbonyl Reductase from Comamonas testosteroni” (PLoS ONE, 2013)
